How the values were obtained:
MDA-MB-231 cells = experiment: CellTiter-Glo Luminescent Cell Viability Assay on ER-negative breast cancer MDA-MB-231 cells in vitro; assay type: cell-based; settings: Homo sapiens, 72 hours, read-out: Inhibition of viability of breast cancer cells IC50, MDA-MB-231 cells
Experimental: A: CellTiter-Glo® Luminescent Cell Viability Assay on ER-Negative Breast Cancer MDA-MB-231 In Vitro:
MDA-MB-231 cells were maintained at 37° C., in a 5% CO2 atmosphere in DMEM and 10% fetal calf serum. The cells were placed at a density of 6×10^3 cells per well in a 96-well plate. MDA-MB-231 cells were treated with a test compound dissolved in DMSO at the concentration of 0, 0.3 μM, 0.5 μM, 1 μM, 2 μM, 3 μM, 5 μM, 10 μM, 20 μM, 30 μM, 50 μM and 100 μM for 72 hours. Treated cells were examined under CellTiter-Glo® Luminescent Cell Viability Assay Kit (Promega), and luminescence were recorded with Envision.

K562 cells = experiment: Viability of chronic leukemia cells K562 by CellTiter-Glo Luminescent Assay in vitro; assay type: cell-based, human; settings: Homo sapiens, 72 hours, read-out: Inhibition of viability of cells in vitro IC50, K562 cells
Experimental: A: Detection of Viability of Chronic Leukemia Cells K562 by CellTiter-Glo® Luminescent Assay In Vitro
The chronic leukemia cells K562 from ATCC were maintained in IMDM and 10% fetal calf serum at 37° C. in a 5% CO2 atmosphere. The cells were subseeded in a 96-well culture plate at a cencentration of 6×10^3 cells/well.K562 cells were treated with a test compound dissolved in DMSO at the concentration of 0, 0.3 μM, 0.5 μM, 1 μM, 2 μM, 3 μM, 5 μM, 10 μM, 20 μM, 30 μM, 50 μM and 100 μM for 72 hours. Treated cells were examined by CellTiter-Glo® Luminescent Cell Viability Assay Kit (Promega), and luminescence were recorded with Envision.

HL-60 cells = experiment: Inhibition of growth of acute myeloblastic leukemia HL-60 cells by MTT method; assay type: cell-based, human; settings: Homo sapiens, 10^−6M, 72 hours, read-out: The inhibition percentage of cell proliferation by the compounds with a concentration of 10^−6M, HL-60 cells
Experimental: A: Inhibition of Growth of Acute Myeloblastic Leukemia HL-60 Cells by the Compounds Detected by MTT Method
The acute myeloblastic leukemia HL-60 cells from ATCC were maintained in IMDM and 10% fetal calf serum at 37° C. in a 5% CO2 atmosphere. The cells were subseeded in a 96-well culture plate at a concentration of 6×10^3 cells/well. HL-60 cells were treated with a test compound dissolved in DMSO at the concentration of 0, 10^−4M, 10^−5M, 10^−6M, 10^−7M, 10^−8M for 72 hours. OD value was tested by MTT method, and the inhibition ratio was calculated.

[1] = tested on: gastric cancer BGC-823 cells; experiment: Inhibition of gastric cancer cell BGC-823 in vitro by MTT method; assay type: cell-based; settings: Homo sapiens; BGC-823, MTT, 72 hours, FIG. 4; read-out: IC50, in vitro inhibition on cell line BGC-823 of gastric cancer
Experimental: A: Inhibition of Gastric Cancer Cell BGC-823 In Vitro by the Compounds by MTT Method
(§1) The gastric cancer BGC-823 cells were subseeded in a 96-well culture plate at a concentration of 3×10^3 cells/well and maintained in phenol red free DMEM medium containing 2.5% CS-FBS at 37° C. in a 5% CO2 atmosphere. BGC-823 cells were treated with a test compound dissolved in DMSO at the concentration of 0, 1, 2, 4, 8, 10 and 20 μM for 72 hours. OD value was tested by MTT method, and the inhibition percentage was calculated.

[2] = tested on: pancreatic cancer PANC-1 cells; experiment: Inhibition of pancreatic cancer cells PANC-1 in vitro by MTT method; assay type: cell-based; settings: Homo sapiens; PANC-1, MTT, 72 hours, FIG. 7; read-out: IC50, in vitro inhibition on cell line PANC-1 of pancreatic cancer
Experimental: A: Inhibition of Pancreatic Cancer Cells PANC-1 In Vitro by the Compounds by MTT Method
as §1, with “pancreatic” for “gastric”, “PANC-1” for “BGC-823”, “1640” for “DMEM”

[3] = tested on: human endometrial cancer Ishikawa cells xenograft tumor; experiment: Inhibition of growth of human endometrial cancer Ishikawa cells xenografts in nude mice; assay type: in vivo; settings: FIG. 11
Experimental: Nude mice with Human endometrial cancer Ishikawa cells Xenograft Tumor were treated with the test compounds to test their effect on inhibiting tumor growth. Tumor was taken from nude mice with Ishikawa cells and cut into small pieces. Small pieces of tumor were implanted into the armpit under the right front limb of female nude mice. After the implantation, the mice were injected with E2β solution once a day at the dosage of 7 μg per mouse for 6 days to stimulate growth in the expriment mice. […] Medroxyprogesterone acetate was used as a positive control. Mixed oil was used as a negative control. The test compound was dispersed in mixed oil (20 mg/mL). […] Then the mice were sacrificed and the tumor tissues were dissected and weighed. The tumor growth inhibition rate was a percentage calculated using the formula: tumor growth inhibition rate=(average weight of the tumor in the negative control—average weight of the tumor treated with test compound) / average weight of the tumor in the negative control. The result is drawn as bar graph, referring to FIG. 11.

`CC(C)=CCc1c(O)cc(O)c2c(=O)c(O)c(-c3ccc(C(F)(F)F)cc3)oc12` [Compound 1, 2-(4-trifluoromethylphenyl)-3,5,7-trihydroxy-8-(3-methyl-2-buten-1-yl)-4H-chromen-4-one] showed an IC50 (MDA-MB-231 cells) of 1070 nM, an IC50 (K562 cells) of 1040 nM and an inhibition at 1 µM (HL-60 cells) of 60.7%. The IC50 [1] was 1000 to 4000 nM, the IC50 [2] was 1000 to 4000 nM and the “average tumor weight, inhibition on tumor growth” value ([3]; Ishikawa bearing nude mice, 17.5, 35 and 70 mg/kg, 20 days of continuous administration) was “dominant inhibition on tumor growth”. The “inhibition effect compared with control drug DMPA” value ([3]; Ishikawa bearing nude mice, versus DMPA 120 mg/kg, 20 days) was “higher than control drug”.

Reference: patent US9221781B2, “Synthesis of polyhydroxy chromenone compounds and their anti-tumor effects” (BEIJING SHENOGEN PHARMA GROUP LTD., priority 2012, dated 2015)
